From patent US5141943A, “5-benzyl barbiturate derivatives” (Brown University Research Foundation, priority 1990, dated 1992)
Values after ≈ are worked out from the molar mass of the structure shown. Read-outs that look alike come from different tables or passages of the source.

Columns and labels:
uridine phosphorylase [1] = assay: Inhibition of uridine phosphorylase (mouse liver cytosol, uridine substrate); assay type: biochemical; settings: for Ki: uridine 1 mM, pH 8, 37° C., 30 min, Dixon plots, read-out: APP Ki (apparent inhibition constant); for uridine phosphorylase inhibition compared with uracil / acyclouridine counterpart or analogue: comparison in words from Table I
Procedure: The activity of the 5-benzyl barbiturates of this invention as inhibitors of uridine phosphorylase was measured essentially following the procedure of Naguib et al. (vol. 36, Biochem. Pharmac. pp. 2195-2201 (1987)), the disclosure of which is incorporated herein by reference. An abridged description of the protocol is described below.
Mouse livers for these experiments were obtained from Swiss Albino (CDl) mice (Charles River Laboratories, Boston, Mass.). The mice were killed by cervical dislocation, and the livers removed and washed with ice-cold normal saline (0.9%) before any further manipulation.
The saline solution was wiped off the organs with tissue paper, and the organs weighed and then cut into smaller pieces in ice-cold homogenization buffer (3:1, v/w) containing 20 mM potassium phosphate (pH 8), 1 mM EDTA, and 1 mM mercaptoethanol. The livers were then homogenized with a polytron homogenizer (Brinkman), and the homogenates centrifuged at 105,000 g for 1 hr at 4°. The supernatant fluids (cytosol) were collected and used as the enzyme source.
The assay mixture contained 20 mM potassium phosphate (pH 8), 1 mM EDTA, 1 mM mercaptoethanol, substrate (uridine, 9 mCi/mmol) and 40 μl of enzyme preparation in a final volume of 80 μl. Under these conditions the activity was linear with time and amount of enzyme. Apparent Ki values were estimated from Dixon plots (1/v vs[I]) of the data by a computer program with least squares fitting, using uridine (1 mM) and five different concentrations of the inhibitor within the range of 0.0625 μM and 1.0 μM.
Incubation was carried out at 37° C., for 30 min. The reaction was terminated by immersing the reaction tubes (1 ml Eppendorf tubes) in boiling water for 1 min. and then freezing the reaction tubes for at least 20 min. Proteins were removed by centrifugation, and 5 μl of the supernatant fluid spotted on silica gel TLC plates which had been prespotted with 5 μl of a standard mixture of 10 mM each uridine and uracil. The plates were then developed in a mixture of chloroform and methanol (90:10, v/v). Uridine and uracil were identified by UV quenching. (Rf values for uridine and uracil are 0.09 and 0.39, respectively.) Spots were then cut out and counted in 20 ml of Omnifluor-based scintillant.
Protein concentrations were determined by the method of Bradford, (Bradford, M. M., vol. 72, Analyt. Biochem. p. 248 (1976)) as described by the Bio-Rad Laboratories (Bio-Rad Laboratories, Bulletin 1069, Bio-Rad Laboratories, Richmond, Calif. (1979)), using bovine […] as a standard.

[2] = Solubility in water at room temperature; assay type: physicochemical
[3] = prolonged AZT administration, or high doses of uridine (background); cited from earlier work
[4] = in water at room temperature; acyclouridines of the art (background); cited from earlier work
uridine phosphorylase [5] = settings: *calculated from Niedzwicki, J. G. et al.; read-out: APP Ki (apparent inhibition constant); cited from earlier work
[6] = system: human bone marrow progenitor cells (HBMP); settings: Somadossi et al. 1988; cited from earlier work
[7] = water, in water, at room temperature, read-out: SOL. (solubility)

Question: Which Ki (uridine phosphorylase [1]) does the source give for “5-benzyloxybenzylacetyl-1-[(1-hydroxy-2-ethoxy)methyl] barbiturate [BBCAB]” here?
Answer: 2.6 µM

Question: What about the “SOL. (solubility)” value ([2]; in water, at room temperature) of the same compound?
Answer: > 3000 µM

Question: Which toxic side effects [3] does the source give for `Cc1cn([C@H]2C[C@H](N=[N+]=[N-])[C@@H](CO)O2)c(=O)[nH]c1=O` [AZT, 3'-azido-3'-deoxythymidine] here?
Answer: suppression of bone marrow growth in the patient

Question: With `O=c1[nH]c(=O)n(COCCO)cc1Cc1ccccc1` [BAU] as the compound, how does the Ki (uridine phosphorylase [1]) read?
Answer: 3.2 µM

Question: And the solubility ([2]; water)?
Answer: 1000 µM (≈ 276 µg/mL)

Question: And the solubility in water [4]?
Answer: about 1 mM

Question: With `O=C1NC(=O)C(Cc2ccccc2)C(=O)N1` [BB, 5-benzyl barbiturate] as the compound, how does the Ki (uridine phosphorylase [1]) read?
Answer: 44 µM

Question: What about the solubility [2, 7] of the same compound?
Answer: > 3000 µM

Question: Which “uridine phosphorylase inhibition compared with uracil / acyclouridine counterpart or analogue” value (uridine phosphorylase [1]) does the source give for `O=C1NC(=O)N(COCCO)C(=O)C1Cc1cccc(OCc2ccccc2)c1` (centres unmarked) [BBAB, 5-benzyloxybenzyl-1-[(1-hydroxy-2-ethoxy)methyl] barbiturate] here?
Answer: further improves inhibition

Question: And the Ki (uridine phosphorylase [1])?
Answer: 0.8 µM

Question: And the “water solubility compared with acyclouridines” value ([2]; in water, at room temperature)?
Answer: significantly greater than that of the acyclouridines

Question: What about the solubility [2, 7] of the same compound?
Answer: ≥ 3000 µM

Question: With `O=c1[nH]c(=O)n(COCCO)cc1Cc1cccc(OCc2ccccc2)c1` [BBAU, 5-benzyl-oxybenzyl-acyclouridine] as the compound, how does the Ki (uridine phosphorylase [1]) read?
Answer: 1.1 µM

Question: What about the solubility ([2]; water) of the same compound?
Answer: ≤ 1000 µM

Question: What about the solubility in water [4] of the same compound?
Answer: about 1 mM

Question: Which “uridine phosphorylase inhibition compared with uracil / acyclouridine counterpart or analogue” value (uridine phosphorylase [1]) does the source give for `O=C1NC(=O)C(Cc2cccc(OCc3ccccc3)c2)C(=O)N1` [BBB, 5-benzyloxybenzyl barbiturate] here?
Answer: significantly stronger uridine phosphorylase inhibitor than BBU

Question: What about the Ki (uridine phosphorylase [1]) of the same compound?
Answer: 3 µM

Question: And the solubility [2, 7]?
Answer: > 3000 µM

Question: With `O=c1[nH]cc(Cc2cccc(OCc3ccccc3)c2)c(=O)[nH]1` [BBU, 5-benzyloxybenzyl uracil] as the compound, how does the solubility ([2]; water) read?
Answer: ≤ 1000 µM

Question: With `O=c1[nH]cc(Cc2ccccc2)c(=O)[nH]1` [BU] as the compound, how does the Ki (uridine phosphorylase [5]) read?
Answer: 54 µM

Question: What about the solubility ([2]; water) of the same compound?
Answer: ≤ 1000 µM

Question: For `O=C1CC(=O)NC(=O)N1` [Barbiturate, barbituric acid], which Ki (uridine phosphorylase [1]) is on record?
Answer: ~1500 µM

Question: What about the solubility ([2]; in water, at room temperature, read-out: SOL. (solubility)) of the same compound?
Answer: > 3000 µM

Question: Which solubility in water [4] does the source give for `O=c1[nH]c(=O)n(COC(CO)CO)cc1Cc1cccc(OCc2ccccc2)c1` [HM-BBAU] here?
Answer: about 1 mM

Question: Which Ki (uridine phosphorylase [1]) does the source give for `COc1cccc(CC2C(=O)NC(=O)N(COCCOC(C)=O)C2=O)c1` (centres unmarked) [MBCAB, 5-Methoxybenzylacetyl acyclo barbiturate] here?
Answer: 1.9 µM

Question: What about the solubility [2, 7] of the same compound?
Answer: > 3000 µM

Question: Which “reversal of toxic effects of AZT” value [6] does the source give for `Nc1ccn([C@@H]2O[C@H](CO)[C@@H](O)[C@H]2O)c(=O)n1` [cytidine] here?
Answer: to a lesser extent

Question: For `O=c1ccn([C@@H]2O[C@H](CO)[C@@H](O)[C@H]2O)c(=O)[nH]1` [uridine], which “reversal of toxic effects of AZT” value [6] is on record?
Answer: can reverse the toxic effects of AZT in human bone marrow progenitor cells (HBMP)

Question: What about the toxic side effects [3] of the same compound?
Answer: toxic side effects, such as phlebitis and pyrogenic reactions
